Laboratory results published in paper PMC3224403 (Indian Journal of Pharmaceutical Sciences, 2011).

Tests used:
Format in all cases: in vivo
[1] = system: maximum electroshock seizure; assay: Maximum electroshock seizure; details: dose 200 mg/Kg b.w. (5e, 5f: 150); Fischer's exact test
[2] = system: carrageenan-induced rat paw edema; assay: Carrageenan-induced rat paw edema method
[3] = system: cotton pellet induced granulation tissue formation; assay: Cotton pellet induced granulation tissue formation method; details: dose 200 mg/Kg b.w. (5e, 5f: 150)
[4] = system: adrenal weight; assay: Adrenal weight change method; details: suppression of adrenal weights; dose 200 mg/Kg b.w. (5e, 5f: 150)
[5] = system: ulcers; assay: Ulcerogenecity, arbitrary ulcer scoring system; details: dose 200 mg/Kg b.w. (5e, 5f: 150); p in parentheses
[6] = system: radiant heat induced rat tail flick; assay: Radiant heat induced rat tail flick method; details: dose 200 mg/Kg b.w. (5e, 5f: 150)

| SMILES | Anticonvulsant activity, MES protection [1] | Antiinflammatory activity Percentage Inhibition, Carrageenan method, 1 h ([2]; 1 h, dose 200 mg/Kg b.w. (5e, 5f: 150)) | Antiinflammatory activity Percentage Inhibition, Carrageenan method, 3 h ([2]; 3 h, dose 200 mg/Kg b.w. (5e, 5f: 150)) | Antiinflammatory activity, carrageenan-induced rat paw edema, after 6 h ([2]; 6 h as printed in the text) | Antiinflammatory activity Percentage Inhibition, Cotton pellet method [3] | Antiinflammatory activity Percentage Inhibition, Adrenal weight method [4] | Ulcer index [5] | Analgesic activity percent protection, Rat tail flick method [6] |
| --- | --- | --- | --- | --- | --- | --- | --- | --- |
| O=C1NC(=O)C(c2ccccc2)(c2ccccc2)N1 [phenytoin sodium] | 100% | – | – | – | – | – | – | – |
| CC(=O)Oc1ccccc1C(=O)O [aspirin] | – | 54.84% | 55.05% | 73.81% | 41.88% | 50.13% | 43.33 | 49.39% |
